From patent publication US4471131A, “Novel silyl esters of N-phosphonomethylglycine” (Monsanto Company, priority 1983, dated 1984)

Tests used:
Assay in all cases: post-emergence herbicidal activity, greenhouse
Type in all cases: in vivo
Morningglory = test system: Morningglory
Outline: (§1)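 Plants grown from seed or vegetative propagules in topsoil pans on a greenhouse sand bench, watered from below, were atomizer-sprayed at two to three weeks of age. The spray carried about 0.4% by weight emulsifier. Injury relative to unsprayed control pans was scored approximately two and four weeks after treatment.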

Cocklebur = test system: Cocklebur
Outline: as §1

Downy Brome = test system: Downy Brome
Outline: as §1

Barnyardgrass = test system: Barnyardgrass
Outline: as §1

Pennsylvania Smartweed = test system: Pennsylvania Smartweed
Outline: as §1

Yellow Nutsedge = conditions: Table II
Outline: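 Candidate chemical is applied by atomizer at the indicated rates to emerged plants of 2–3 weeks, spray containing about 0.4 wt% emulsifier. Effects are judged as injury against unsprayed control pans, approximately two and four weeks post-application.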

Canada Thistle = conditions: Table II, formulated in anhydrous tetrahydrofuran
Outline: as §1

[1] = Table II, 2 WAT, 5.6 kg/h, formulated in anhydrous tetrahydrofuran
[2] = Table II, 2 WAT, 11.2 kg/h, formulated in anhydrous tetrahydrofuran
[3] = Table II, 4 WAT, 5.6 kg/h, formulated in anhydrous tetrahydrofuran
[4] = Table II, 4 WAT, 11.2 kg/h, formulated in anhydrous tetrahydrofuran
[5] = Table III, 2 WAT, 1.1 kg/h, formulated in anhydrous tetrahydrofuran
[6] = Table III, 2 WAT, 5.6 kg/h, formulated in anhydrous tetrahydrofuran
[7] = Table III, 2 WAT, .28 kg/h, formulated in anhydrous tetrahydrofuran
[8] = Table III, 4 WAT, 1.1 kg/h, formulated in anhydrous tetrahydrofuran
[9] = Table III, 4 WAT, 5.6 kg/h, formulated in anhydrous tetrahydrofuran
[10] = Table III, 4 WAT, .28 kg/h, formulated in anhydrous tetrahydrofuran

CCOC(=O)CNCP(=O)(O)O[Si](c1ccccc1)(c1ccccc1)C(C)(C)C [Ex. 7, Glycine, N--((([(1,1-Dimethylethyl)Diphenylsilyl]Oxy)Hydroxyphosphinyl)Methyl)-,Ethyl Ester]
Plant Response Index (D) (Morningglory; Table II, 2 WAT, 5.6 kg/h): 2 (50-74% inhibition) | Plant Response Index (D) (Morningglory; [1]): 2 (50-74% inhibition) | Plant Response Index (D) (Morningglory; Table II, 2 WAT, 11.2 kg/h): 2 (50-74% inhibition) | Plant Response Index (D) (Morningglory; [2]): 1 (25-49% inhibition) | Plant Response Index (D) (Morningglory; Table II, 4 WAT, 5.6 kg/h): 2 (50-74% inhibition) | Plant Response Index (D) (Morningglory; [3]): 2 (50-74% inhibition) | Plant Response Index (D) (Morningglory; Table II, 4 WAT, 11.2 kg/h): 2 (50-74% inhibition) | Plant Response Index (D) (Morningglory; [4]): 2 (50-74% inhibition) | Plant Response Index (D) (Morningglory; Table III, 2 WAT, 1.1 kg/h): 2 (50-74% inhibition) | Plant Response Index (D) (Morningglory; [5]): 2 (50-74% inhibition) | Plant Response Index (D) (Morningglory; Table III, 2 WAT, 5.6 kg/h): 2 (50-74% inhibition) | Plant Response Index (D) (Morningglory; [6]): 2 (50-74% inhibition) | Plant Response Index (D) (Morningglory; Table III, 2 WAT, .28 kg/h): 2 (50-74% inhibition) | Plant Response Index (D) (Morningglory; [7]): 1 (25-49% inhibition) | Plant Response Index (D) (Morningglory; Table III, 4 WAT, 1.1 kg/h): 2 (50-74% inhibition) | Plant Response Index (D) (Morningglory; [8]): 2 (50-74% inhibition) | Plant Response Index (D) (Morningglory; Table III, 4 WAT, 5.6 kg/h): 3 (75-99% inhibition) | Plant Response Index (D) (Morningglory; [9]): 3 (75-99% inhibition) | Plant Response Index (D) (Morningglory; Table III, 4 WAT, .28 kg/h): 1 (25-49% inhibition) | Plant Response Index (D) (Morningglory; [10]): 1 (25-49% inhibition) | Plant Response Index (B) (Cocklebur; Table II, 2 WAT, 5.6 kg/h): 3 (75-99% inhibition) | Plant Response Index (B) (Cocklebur; [1]): 2 (50-74% inhibition) | Plant Response Index (B) (Cocklebur; Table II, 2 WAT, 11.2 kg/h): 2 (50-74% inhibition) | Plant Response Index (B) (Cocklebur; [2]): 1 (25-49% inhibition) | Plant Response Index (B) (Cocklebur; Table II, 4 WAT, 5.6 kg/h): 4 (100% inhibition) | Plant Response Index (B) (Cocklebur; [3]): 3 (75-99% inhibition) | Plant Response Index (B) (Cocklebur; Table II, 4 WAT, 11.2 kg/h): 4 (100% inhibition) | Plant Response Index (B) (Cocklebur; [4]): 3 (75-99% inhibition) | Plant Response Index (B) (Cocklebur; Table III, 2 WAT, 1.1 kg/h): 2 (50-74% inhibition) | Plant Response Index (B) (Cocklebur; [5]): 2 (50-74% inhibition) | Plant Response Index (B) (Cocklebur; Table III, 2 WAT, 5.6 kg/h): 2 (50-74% inhibition) | Plant Response Index (B) (Cocklebur; [6]): 3 (75-99% inhibition) | Plant Response Index (B) (Cocklebur; Table III, 2 WAT, .28 kg/h): 1 (25-49% inhibition) | Plant Response Index (B) (Cocklebur; [7]): 2 (50-74% inhibition) | Plant Response Index (B) (Cocklebur; Table III, 4 WAT, 1.1 kg/h): 3 (75-99% inhibition) | Plant Response Index (B) (Cocklebur; [8]): 2 (50-74% inhibition) | Plant Response Index (B) (Cocklebur; Table III, 4 WAT, 5.6 kg/h): 3 (75-99% inhibition) | Plant Response Index (B) (Cocklebur; [9]): 3 (75-99% inhibition) | Plant Response Index (B) (Cocklebur; Table III, 4 WAT, .28 kg/h): 1 (25-49% inhibition) | Plant Response Index (B) (Cocklebur; [10]): 2 (50-74% inhibition) | Plant Response Index (J) (Downy Brome; Table II, 2 WAT, 5.6 kg/h): 2 (50-74% inhibition) | Plant Response Index (J) (Downy Brome; [1]): 1 (25-49% inhibition) | Plant Response Index (J) (Downy Brome; Table II, 2 WAT, 11.2 kg/h): 2 (50-74% inhibition) | Plant Response Index (J) (Downy Brome; [2]): 1 (25-49% inhibition) | Plant Response Index (J) (Downy Brome; Table II, 4 WAT, 5.6 kg/h): 3 (75-99% inhibition) | Plant Response Index (J) (Downy Brome; [3]): 1 (25-49% inhibition) | Plant Response Index (J) (Downy Brome; Table II, 4 WAT, 11.2 kg/h): 3 (75-99% inhibition) | Plant Response Index (J) (Downy Brome; [4]): 1 (25-49% inhibition) | Plant Response Index (J) (Downy Brome; Table III, 2 WAT, 1.1 kg/h): 2 (50-74% inhibition) | Plant Response Index (J) (Downy Brome; [5]): 1 (25-49% inhibition) | Plant Response Index (J) (Downy Brome; Table III, 2 WAT, 5.6 kg/h): 2 (50-74% inhibition) | Plant Response Index (J) (Downy Brome; [6]): 2 (50-74% inhibition) | Plant Response Index (J) (Downy Brome; Table III, 2 WAT, .28 kg/h): 1 (25-49% inhibition) | Plant Response Index (J) (Downy Brome; [7]): 0 (0-24% inhibition) | Plant Response Index (J) (Downy Brome; Table III, 4 WAT, 1.1 kg/h): 2 (50-74% inhibition) | Plant Response Index (J) (Downy Brome; [8]): 1 (25-49% inhibition) | Plant Response Index (J) (Downy Brome; Table III, 4 WAT, 5.6 kg/h): 2 (50-74% inhibition) | Plant Response Index (J) (Downy Brome; [9]): 3 (75-99% inhibition) | Plant Response Index (J) (Downy Brome; Table III, 4 WAT, .28 kg/h): 0 (0-24% inhibition) | Plant Response Index (J) (Downy Brome; [10]): 0 (0-24% inhibition) | Plant Response Index (K) (Barnyardgrass; Table II, 2 WAT, 5.6 kg/h): 3 (75-99% inhibition) | Plant Response Index (K) (Barnyardgrass; [1]): 1 (25-49% inhibition) | Plant Response Index (K) (Barnyardgrass; Table II, 2 WAT, 11.2 kg/h): 3 (75-99% inhibition) | Plant Response Index (K) (Barnyardgrass; [2]): 2 (50-74% inhibition) | Plant Response Index (K) (Barnyardgrass; Table II, 4 WAT, 5.6 kg/h): 3 (75-99% inhibition) | Plant Response Index (K) (Barnyardgrass; [3]): 2 (50-74% inhibition) | Plant Response Index (K) (Barnyardgrass; Table II, 4 WAT, 11.2 kg/h): 4 (100% inhibition) | Plant Response Index (K) (Barnyardgrass; [4]): 3 (75-99% inhibition) | Plant Response Index (K) (Barnyardgrass; Table III, 2 WAT, 1.1 kg/h): 3 (75-99% inhibition) | Plant Response Index (K) (Barnyardgrass; [5]): 2 (50-74% inhibition) | Plant Response Index (K) (Barnyardgrass; Table III, 2 WAT, 5.6 kg/h): 3 (75-99% inhibition) | Plant Response Index (K) (Barnyardgrass; [6]): 3 (75-99% inhibition) | Plant Response Index (K) (Barnyardgrass; Table III, 2 WAT, .28 kg/h): 2 (50-74% inhibition) | Plant Response Index (K) (Barnyardgrass; [7]): 1 (25-49% inhibition) | Plant Response Index (K) (Barnyardgrass; Table III, 4 WAT, 1.1 kg/h): 3 (75-99% inhibition) | Plant Response Index (K) (Barnyardgrass; [8]): 2 (50-74% inhibition) | Plant Response Index (K) (Barnyardgrass; Table III, 4 WAT, 5.6 kg/h): 3 (75-99% inhibition) | Plant Response Index (K) (Barnyardgrass; [9]): 3 (75-99% inhibition) | Plant Response Index (K) (Barnyardgrass; Table III, 4 WAT, .28 kg/h): 2 (50-74% inhibition) | Plant Response Index (K) (Barnyardgrass; [10]): 1 (25-49% inhibition) | Plant Response Index (F) (Pennsylvania Smartweed; Table II, 2 WAT, 5.6 kg/h): 2 (50-74% inhibition) | Plant Response Index (F) (Pennsylvania Smartweed; [1]): 1 (25-49% inhibition) | Plant Response Index (F) (Pennsylvania Smartweed; Table II, 2 WAT, 11.2 kg/h): 2 (50-74% inhibition) | Plant Response Index (F) (Pennsylvania Smartweed; [2]): 1 (25-49% inhibition) | Plant Response Index (F) (Pennsylvania Smartweed; Table II, 4 WAT, 5.6 kg/h): 4 (100% inhibition) | Plant Response Index (F) (Pennsylvania Smartweed; [3]): 1 (25-49% inhibition) | Plant Response Index (F) (Pennsylvania Smartweed; Table II, 4 WAT, 11.2 kg/h): 2 (50-74% inhibition) | Plant Response Index (F) (Pennsylvania Smartweed; [4]): 4 (100% inhibition) | Plant Response Index (F) (Pennsylvania Smartweed; Table III, 2 WAT, 1.1 kg/h): 3 (75-99% inhibition) | Plant Response Index (F) (Pennsylvania Smartweed; [5]): 4 (100% inhibition) | Plant Response Index (F) (Pennsylvania Smartweed; Table III, 2 WAT, 5.6 kg/h): 2 (50-74% inhibition) | Plant Response Index (F) (Pennsylvania Smartweed; [6]): 4 (100% inhibition) | Plant Response Index (F) (Pennsylvania Smartweed; Table III, 2 WAT, .28 kg/h): 3 (75-99% inhibition) | Plant Response Index (F) (Pennsylvania Smartweed; [7]): 2 (50-74% inhibition) | Plant Response Index (F) (Pennsylvania Smartweed; Table III, 4 WAT, 1.1 kg/h): 3 (75-99% inhibition) | Plant Response Index (F) (Pennsylvania Smartweed; [8]): 4 (100% inhibition) | Plant Response Index (F) (Pennsylvania Smartweed; Table III, 4 WAT, 5.6 kg/h): 3 (75-99% inhibition) | Plant Response Index (F) (Pennsylvania Smartweed; [9]): 4 (100% inhibition) | Plant Response Index (F) (Pennsylvania Smartweed; Table III, 4 WAT, .28 kg/h): 3 (75-99% inhibition) | Plant Response Index (F) (Pennsylvania Smartweed; [10]): 2 (50-74% inhibition) | Plant Response Index (G) (Yellow Nutsedge; 2 WAT, 5.6 kg/h): 1 (25-49% inhibition) | Plant Response Index (G) (Yellow Nutsedge; 2 WAT, 5.6 kg/h, formulated in anhydrous tetrahydrofuran): 1 (25-49% inhibition) | Plant Response Index (G) (Yellow Nutsedge; 2 WAT, 11.2 kg/h): 2 (50-74% inhibition) | Plant Response Index (G) (Yellow Nutsedge; 2 WAT, 11.2 kg/h, formulated in anhydrous tetrahydrofuran): 1 (25-49% inhibition) | Plant Response Index (G) (Yellow Nutsedge; 4 WAT, 5.6 kg/h): 2 (50-74% inhibition) | Plant Response Index (G) (Yellow Nutsedge; 4 WAT, 5.6 kg/h, formulated in anhydrous tetrahydrofuran): 2 (50-74% inhibition) | Plant Response Index (G) (Yellow Nutsedge; 4 WAT, 11.2 kg/h): 3 (75-99% inhibition) | Plant Response Index (G) (Yellow Nutsedge; 4 WAT, 11.2 kg/h, formulated in anhydrous tetrahydrofuran): 2 (50-74% inhibition) | Plant Response Index (A) (Canada Thistle; 2 WAT, 5.6 kg/h): 1 (25-49% inhibition) | Plant Response Index (A) (Canada Thistle; 2 WAT, 11.2 kg/h): 1 (25-49% inhibition) | Plant Response Index (A) (Canada Thistle; 4 WAT, 5.6 kg/h): 3 (75-99% inhibition) | Plant Response Index (A) (Canada Thistle; 4 WAT, 11.2 kg/h): 3 (75-99% inhibition)
